# Measurements taken from paper PMC6272497, “Biological Activities and Cytotoxicity of Diterpenes from Copaifera spp. Oleoresins” (Molecules, 2015).
# Entries after “also recorded” stand apart in the source; their conditions may differ.
# Columns and labels:
# [1] = system: MCP-1 production in RAW 264.7 murine macrophages; parameters: method as in PMID 18267111; settings: 20 µM to 50 µM; cited from earlier work
# [2] = system: TNF-α production in RAW 264.7 murine macrophages; parameters: method as in PMID 18267111; settings: 20 µM to 50 µM; cited from earlier work
# [3] = system: MCF -7 (breast cancer); parameters: method as in PMID 12165328; settings: single concentration of 78 µM; cited from earlier work
# [4] = system: NIHOVCAR (ovary); experiment: Alamar Blue assay, tumoral cells NIHOVCAR; type: cell-based; settings: 72 h, 20 µmol/L; listed as Kaurenoic Acid
# Protocol: (§1) We also investigated possible cytotoxic effects on tumor cell lines (Table 1). To characterize this activity, the compounds were tested in different tumor cell lines, among which were AGP-01 (gastric), HCT116 (colorectal), MCF07 (breast cancer), NIHOVCAR (ovary), SKAMELL-4 (melanoma), and SF-295 (human glioblastoma), each at a concentration of 20 µM.
# (§2) Cytotoxicity assay. The cytotoxicity of diterpene compounds to the murine macrophage cell line J774 was determined by the Alamar Blue method as described by Nakayama et al.. Briefly, adherent cells (5 × 10^3 cells/well) were grown in 96-well tissue culture plates and exposed to substances (2.5 to 10 µg/mL) for 24, 48 and 72 h. After incubation, the Alamar Blue solution (10 μL of 0.4% Alamar Blue (resazurin) in PBS) was added and the cells were incubated for 3 h at 37 °C. Fluorescence was measured (excitation at 545 nm and emission at 595 nm) and expressed as a percentage of the cells in the control after background fluorescence was subtracted. As a positive control of cell death, doxorubicin (5 µg/mL) was used. The assays were performed in triplicate. For the assays with tumoral cells, an Alamar Blue assay was performed using the following cell lines: AGP01—gastric; HCT116—colorectal; MCF07—breast cancer; NIHOVCAR—ovary; SKAMELL4—melanoma; SF295—human glioblastoma, which were seeded in 96-well plates (0.5 × 10^4 cells per well) and incubated in a CO2 atmosphere at 5% and 37 °C. After 24 h, diterpenes at 20 µM were added to each well and incubated for 72 h. Doxorubicin (10 μM) was used as a positive control and DMSO (0.1%) as a negative control. Before the end of the incubation, 10 µL of Alamar Blue (0.02%) was added to each well. The fluorescent signal was monitored using a multiplate reader using a 530–560 nm excitation wavelength and 590 nm emission wavelength. The fluorescent signal generated from the assay was proportional to the number of live cells in the sample, according to the manufacturer.
# [5] = system: SKMELL28 (melanoma); experiment: Alamar Blue assay, tumoral cells SKMELL28; type: cell-based; settings: 72 h, 20 µmol/L
# Protocol: as §1, §2
# [6] = system: nitric oxide production in J774 macrophages stimulated with LPS; experiment: NO production assay (Griess) in LPS-stimulated J774 cells; type: cell-based, murine; settings: Mus musculus; J774, LPS 1 µg/mL, 24 h; read-out: inhibition of NO production IC50
# Protocol: Our study evaluated the effects of diterpene compounds on the production of nitric oxide in the murine macrophage cell line J774 stimulated with LPS (Figure 2D). NO^• levels were measured by the Greiss method. […] Similar results for kaurenoic acid were observed by Choi et al. […] Figure 2 Effect of the isolated diterpenic acids on nitric oxide (NO^•) and cytokine production in lipopolysaccharide-stimulated J774 cells. (A) TNF-α, (B) IL-6 and (C) IL-10 and (D) NO^•. […] The nitrite and cytokines values are the mean ± S.D. from three independent experiments. Indomethacin was used as a standard. Statistical analysis was performed using the Holm-Sidak multiple comparison. * p < 0.05 when compared to control stimulated with LPS. (1) 3-hydroxy-copalic acid, (2) kaurenoic acid, (3) 3-acetoxy-copalic acid, (4) kolavic acid 15-methyl ester, (5) copalic acid and (6) […]. NO^• production by J774 cells was assayed by measuring the accumulation of nitrite in the culture medium using a Griess reaction. Briefly, after incubation of the cells (1 × 10^6 cells/mL) with diterpene compounds in different concentrations from 6.25 to 100 μM, cells were incubated for 24 h with LPS (1 μg/mL), at 37 °C in a 5% CO2 incubator. Nitric oxide was measured as NO2 in culture supernatant by reaction with Griess reagent. Absorbance of the reaction product was determined at 560 nm using a microplate reader (DTX 800, Beckman). Sodium nitrite was used as a standard to calculate nitrite concentrations.
# [7] = system: NO production in RAW 264.7 macrophage stimulated by LPS; parameters: method as in PMID 16280009; settings: RAW 264.7, LPS; kaurenoic acid from Aralia continentalis; read-out: inhibition of NO production IC50; cited from earlier work
# [8] = system: AGP01 (gastric); experiment: Alamar Blue assay, tumoral cells AGP01; type: cell-based; settings: 72 h, 20 µmol/L; listed as Kaurenoic Acid
# Protocol: as §1, §2
# [9] = system: IL-10 production; experiment: IL-10 production in LPS-stimulated J774 cells (CBA); type: cell-based, murine
# Protocol: (§3) Figure 2 Effect of the isolated diterpenic acids on nitric oxide (NO^•) and cytokine production in lipopolysaccharide-stimulated J774 cells. (A) TNF-α, (B) IL-6 and (C) IL-10 and (D) NO^•. Production of NO^• was assayed in culture supernatants of macrophages stimulated with LPS (1 µg/mL) for 24 h in the presence of the four compounds (25 µg/mL to cytokines and 50 µg/mL to NO^•). The nitrite and cytokines values are the mean ± S.D. from three independent experiments. Indomethacin was used as a standard. Statistical analysis was performed using the Holm-Sidak multiple comparison. * p < 0.05 when compared to control stimulated with LPS. (1) 3-hydroxy-copalic acid, (2) kaurenoic acid, (3) 3-acetoxy-copalic acid, (4) kolavic acid 15-methyl ester, (5) copalic acid and (6) hardwickiic acid.
# Macrophage cells (1 × 10^6 cells/mL) were incubated with different concentrations of diterpene compounds (12.5 to 50 μM), and then stimulated with 1 μg/mL of LPS. The culture supernatants were collected after 24 h of LPS stimulation. The levels of cytokines in the culture media were measured by flow cytometry (BD Cytometric Bead Array—CBA—Mouse Inflammation kit) according to the manufacturer’s instructions.
# [10] = system: HCT -8 cells (colon cancer); parameters: method as in PMID 12165328; settings: single concentration of 78 µM; cited from earlier work
# [11] = system: erythrocyte; experiment: Hemolysis test
# Protocol: The assay for the characterization of hemolytic activity aimed to evaluate the potential of diterpenes on lysis of the cell membrane.
# Blood was collected in heparinized-tubes from Wistar rats, and washed three times with saline solution (NaCl 0.85% + CaCl2 10 mM) by centrifugation at 700 g for 10 min. The pellet of erythrocyte was re-suspended in saline solution for preparation of erythrocyte suspension −2% (SE). A total of 100 µL of the samples of diluted diterpenes was added to 96-well microplates in different concentrations (6.25 to 800 µM); 100 µL of SE was then added; and the samples were incubated for 60 min at 37 °C under constant agitation. The release of hemoglobin was determined after centrifugation (700 g for 10 min) by photometric analysis of the supernatant at 540 nm. Complete hemolysis was achieved using 0.2% Triton X-100 yielding the 100% control value.
# [12] = system: HCT-116 (colorectal); experiment: Alamar Blue assay, tumoral cells HCT-116; type: cell-based; settings: 72 h, 20 µmol/L; listed as Kaurenoic Acid
# Protocol: as §1, §2
# [13] = system: CEM (leukemia); parameters: method as in PMID 12165328; settings: single concentration of 78 µM; cited from earlier work
# [14] = system: IL-6 production; experiment: IL-6 production in LPS-stimulated J774 cells (CBA); type: cell-based, murine; settings: for inhibition of IL-6 production (words): LPS-stimulated J774
# Protocol: as §3, with “Production of NO^• was assayed in culture supernatants of macrophages stimulated with LPS (1 µg/mL) for 24 h in the presence of the four compounds (25 µg/mL to cytokines and 50 µg/mL to NO^•).” left out
# […] The culture supernatants were collected after 24 h of LPS stimulation. The levels of cytokines in the culture media were measured by flow cytometry (BD Cytometric Bead Array—CBA—Mouse Inflammation kit) according to the manufacturer’s instructions.
# [15] = system: SF295 (human glioblastoma); experiment: Alamar Blue assay, tumoral cells SF295; type: cell-based; settings: 72 h, 20 µmol/L
# Protocol: as §1, §2
# [16] = system: TNF-α production and expression; parameters: method as in PMID 18313400; settings: 1 to 20 mg/mL; kaurenoic acid from Helianthus annuus L.; cited from earlier work
# [17] = system: MCF7 (breast cancer); experiment: Alamar Blue assay, tumoral cells MCF7; type: cell-based; settings: 72 h, 20 µmol/L
# Protocol: as §1, §2
compound,measurement,setting,value
CC(C)c1ccc2c(c1)CC[C@H]1[C@](C)(C(=O)O)CCC[C@]21C [Dehydroabietic acid],suppression of MCP-1 production,[1],suppresses production
same,suppression of TNF-α production,[2],suppresses production
C=C1C[C@@]23CC[C@H]4[C@@](C)(CCC[C@@]4(C)C(=O)O)[C@@H]2CC[C@@H]1C3 [kaurenoic acid],inhibition of MCF-7 tumor cells,[3],45%
same,Viability inhibition (%) NIHOVCAR,[4],≤0.01%
same,Viability inhibition (%) SKMELL28,[5],≤0.01%
same,IC50,[6],61.2 ± 4.2 µM
same,IC50,[7],51.7 ± 2.4 µM
same,Viability inhibition (%) AGP01,[8],28.1 ± 4.3%
same,IL-10 production (words),[9]; 12.5 µM and 25 µM,induced the production of IL-10
same,IL-10 production (words),[9]; 50 µM,this induction decreased
same,IL-10 production (words),"[9]; LPS-stimulated J774, 12.5 to 50 µM",increased IL-10 production; also recorded: induced IL-10 production; also recorded: induced production of interleukin-10
same,inhibition of HCT-8 tumor cells,[10],45%
same,hemolytic activity,[11]; 100 µM (abstract),61.7%
same,hemolytic activity,[11]; 100 mM (so in the source),61.7%
same,Viability inhibition (%) HCT-116,[12],0.27 ± 4.3%
same,inhibition of CEM tumor cells,[13],95%
same,inhibition of IL-6 production (words),[14]; listed as Kaurenoic,inhibited the production of IL-6
same,inhibition of IL-6 production (words),[14]; listed as kaurenoic,inhibited IL-6 production
same,inhibition at 25 µM,"[14]; Mus musculus, J774, 25 µM (abstract)",11.2%
same,Viability inhibition (%) SF295,[15]; listed as Kaurenoic Acid,28.0 ± 6.5%
same,Viability inhibition (%) SF295,[15]; listed as kaurenoic,around 20%
same,inhibition of TNF-α production and expression,[16],inhibitory activity on the production and expression of TNF-α
same,Viability inhibition (%) MCF7,[17],≤0.01%
